One experiment relates to OVCAR8 cells. Nature of the experiment: Cell proliferation PAD assay, OVCAR8. The format is cell-based. The note with it: Homo sapiens, OVCAR-8, 6pt, 48 hours. How it is done:
(§1) Cell lines used are available from American Type Culture Collection (ATCC), for example, cell cultures containing A549 (ATCC# CCL-185), HeLa (ATCC# CCL-2), HCT116 ATTC# CCL-247), and H1299 (ATCC# CRL-5803) cells were maintained in T175 flasks following the ATCC recommended media and handling procedures. […] A 20,000 cells/ml solution was made for plating. Cells were plated in black Packard 96 well plates by placing 100 μl per well (2,000 cells per well). […] The definitions of the cell types used are as follows: A549 is lung carcinoma; HI 299 is non-small cell lung carcinoma; HI 155 is non-small cell lung carcinoma; AsPC-1 is pancreatic adenocarcinoma; Caov-3 is ovarian adenocarcinoma; COLO 205 is colorectal adenocarcinoma; DLD-1 colorectal adenocarcinoma; HCT116 is colorectal carcinoma; DU 145 is prostate carcinoma; ES-2 is ovarian clear cell carcinoma; H460 is large cell lung carcinoma; HELA is cervical adenocarcinoma; MIA PaCa-2 is pancreatice carcinoma; OVCAR-3 is ovarian adenocarcinoma; OVCAR8 is ovarian carcinoma; PC3 is prostate adenocarcinoma; SK-OV-3 is ovarian adenocarcinoma; SU86.86 is pancreatic carcinoma; TOV-21G is avarian clear cell carcinoma; U2OS is bone osteosarcoma; is ASPC-I is pancreatic adenocarcinoma; BXPC-3 is pabcreatic adenocarcinoma; HL60 is promyeloblast promyelocytic leukemia; K562 is bone marrow chronic myelogenous leukemia; L1210 is mouse lymphocytic leukemia; MOLT3 is T lymphoblast acute lymphoblastic leukemia; MOLT4 is T lymphoblast acute lymphoblastic leukemia; SW620 is colorectal adenocarcinoma; THP-1 is monocyte acute monocytic leukemia; U937 is histiocytic lymphoma; and UACC-257 is melanoma.
(§2) Compounds and additional media were added 24 hours after cell plating. […] All compound testing was done in duplicate using 6.3 fold dilutions starting with 10 mM. […] Taxol and at least one additional control were run on all plates. Three microliters of the compound master plate were added to deep well blocks containing 750 μl of RPMI media. One hundred microliters were transferred from the compound/media deep well blocks to the plated cells resulting in a 500 fold dilution of the compounds. Cells were grown at 37° C., 5% CO2 for 48 hours.
(§3) Cells to be analyzed by photography were fixed and stained. One hundred microliters of media were removed and 100 μl of 9.3% formamide was added to each well. Plates were left on the benchtop for 45 minutes. A staining solution containing 1.55 μl of 1 mg/ml DAPI added to 18.75 ml PBS was warmed for 15 minutes at 37° C. The cells were aspirated prior to washing with 100 μl of PBS. Seventy microliters of PBS were aspirated and 170 μl of the DAPI solution were added to each well of fixed cells. Plates were left at room temperature for one hour then aspirated and washed twice with 100 μl of PBS. The stained cells were left at 4° C. for a minimum of 16 hours before photographic analysis with Array Scan II (Cellomics). Analysis of the photographic images to determine numbers of live cells (proliferation), apoptotic cells and dead cells, were according to the methods described in U.S. Utility patent application Ser. No. 10/652,440, which incorporated herein in its entirety.

Another experiment relates to UACC-257 cells. The experiment in a line: Cell proliferation PAD assay, UACC-257. The format is cell-based. The note with it: Homo sapiens, UACC257 cells, 6pt, 48 hours. The protocol:
as §1, §2, §3

The target in the next experiment is T1, ROC1/CUL1 (Homo sapiens, UniProt P62877+Q13616).
T1 construct: made in house
The experiment in a line: ROC1/CUL1 ubiquitin ligase assay (SCF assay). Type of experiment: biochemical. In short, it runs like this: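 His-ROC1/CUL1 (100 ng/well) with E1 (5 ng/well), UbcH5c E2 (25 nl/well) and Flag-ubiquitin (100 ng) on nickel-coated plates; the reaction solution held Tris pH 7.5, MgCl2, DTT and 2.5 mM ATP. Compounds were added and the reaction ran 1 h at RT. Bound ubiquitin was read by anti-Flag/HRP luminescence, giving IC50 across compound concentrations.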

T1 sequence (P62877 whole entry): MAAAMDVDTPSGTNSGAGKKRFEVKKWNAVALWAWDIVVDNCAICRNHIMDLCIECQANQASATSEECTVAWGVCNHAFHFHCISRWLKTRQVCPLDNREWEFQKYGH
T1 sequence (Q13616 whole entry): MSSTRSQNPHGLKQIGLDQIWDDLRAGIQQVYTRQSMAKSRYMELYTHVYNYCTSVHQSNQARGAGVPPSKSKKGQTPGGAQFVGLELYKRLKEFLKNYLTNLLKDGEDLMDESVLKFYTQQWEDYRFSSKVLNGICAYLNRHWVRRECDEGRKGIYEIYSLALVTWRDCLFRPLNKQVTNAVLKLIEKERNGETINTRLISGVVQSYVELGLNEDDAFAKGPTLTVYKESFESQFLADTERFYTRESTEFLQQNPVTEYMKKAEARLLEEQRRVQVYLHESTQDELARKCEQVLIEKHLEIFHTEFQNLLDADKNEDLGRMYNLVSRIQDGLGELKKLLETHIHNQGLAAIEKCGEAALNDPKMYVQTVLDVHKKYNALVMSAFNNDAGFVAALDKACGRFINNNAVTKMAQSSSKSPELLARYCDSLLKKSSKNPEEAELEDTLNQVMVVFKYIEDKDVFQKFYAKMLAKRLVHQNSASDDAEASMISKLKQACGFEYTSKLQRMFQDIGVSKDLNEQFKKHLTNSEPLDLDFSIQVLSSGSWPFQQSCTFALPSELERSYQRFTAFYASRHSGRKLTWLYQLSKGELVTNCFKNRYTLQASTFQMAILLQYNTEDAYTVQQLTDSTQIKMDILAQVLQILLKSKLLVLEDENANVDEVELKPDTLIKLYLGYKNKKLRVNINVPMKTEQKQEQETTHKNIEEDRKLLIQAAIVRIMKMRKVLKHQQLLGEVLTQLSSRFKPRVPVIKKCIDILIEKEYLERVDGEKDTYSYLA

As for `O=[N+]([O-])c1ccc(Sc2cccc3cccnc23)c2nonc12` [compound 5, 8-[(7-Nitro-2,1,3-benzoxadiazol-4-yl)thio]quinoline], the IC50 with OVCAR8 cells and in the experiment with UACC-257 cells was under 1 µM each time.
Take `O=[N+]([O-])c1ccc(Oc2c(Cl)cc(S(=O)(=O)Nc3cccc4nsnc34)cc2Cl)c(Cl)c1` [compound 73, N-2,1,3-benzothiadiazol-4-yl-3,5-dichloro-4-(2-chloro-4-nitrophenoxy)benzenesulfonamide]: the IC50 in the experiment on OVCAR8 cells and with UACC-257 cells was at least 20 µM in each case.
For the compound `O=S(=O)(Nc1cccc2nonc12)c1ccc(Oc2ncc(C(F)(F)F)cc2Cl)cc1` [compound 78, N-2,1,3-benzoxadiazol-4-yl-4-{[3-chloro-5-(trifluoromethyl)pyridin-2-yl]oxy}benzenesulfonamide], the IC50 with OVCAR8 cells and with UACC-257 cells was 1 to 20 µM in each case.
Consider `O=[N+]([O-])c1ccc(N2CCN(c3cc(C(F)(F)F)ccn3)CC2)c2nonc12` [compound 90, 4-nitro-7-{4-[4-(trifluoromethyl)pyridin-2-yl]piperazin-1-yl}-2,1,3-benzoxadiazole], for which the IC50 with OVCAR8 cells and in the experiment with UACC-257 cells was at least 20 µM throughout.
Turning to `O=S(=O)(Nc1cccc2nsnc12)c1ccc(Oc2ccccc2)cc1` [compound 94, N-2,1,3-benzothiadiazol-4-yl-4-phenoxybenzenesulfonamide], the IC50 in the experiment with OVCAR8 cells and with UACC-257 cells was 1 to 20 µM in each case.
As to `O=[N+]([O-])c1ccc(Oc2ccc(S(=O)(=O)Nc3cccc4nonc34)cc2Cl)c(C(F)(F)F)c1` [compound 114, N-2,1,3-benzoxadiazol-4-yl-3-chloro-4-[4-nitro-2-(trifluoromethyl)phenoxy]benzenesulfonamide], the IC50 with OVCAR8 cells and with UACC-257 cells was 1 to 20 µM each time.
As for `Cc1ccc(N2CCN(c3ccc([N+](=O)[O-])c4nonc34)CC2)cc1C` [compound 140, 4-[4-(3,4-dimethylphenyl)piperazin-1-yl]-7-nitro-2,1,3-benzoxadiazole], the IC50 with OVCAR8 cells and in the experiment on UACC-257 cells was 1 to 20 µM each time.
Take `N#CC1(c2ccccc2)CCN(c2ccc([N+](=O)[O-])c3nonc23)CC1` [compound 141, 1-(7-nitro-2,1,3-benzoxadiazol-4-yl)-4-phenylpiperidine-4-carbonitrile]: the IC50 with OVCAR8 cells and in the experiment on UACC-257 cells was at least 20 µM each time.
In the case of `O=C(c1ccc(F)cc1)C1CCN(c2ccc([N+](=O)[O-])c3nonc23)CC1` [compound 142, (4-fluorophenyl)[1-(7-nitro-2,1,3-benzoxadiazol-4-yl)piperidin-4-yl]methanone], the IC50 in the experiment on OVCAR8 cells and with UACC-257 cells was 1 to 20 µM each time.
`CC1CC(C)CN(c2ccc([N+](=O)[O-])c3nonc23)C1` (stereo not drawn) [compound 144, 4-(3,5-dimethylpiperidin-1-yl)-7-nitro-2,1,3-benzoxadiazole]: the IC50 in the experiment with OVCAR8 cells and in the experiment on UACC-257 cells was at least 20 µM each time.
As to `Cc1ccc(Cl)cc1N1CCN(c2ccc([N+](=O)[O-])c3nonc23)CC1` [compound 145, 4-[4-(5-chloro-2-methylphenyl)piperazin-1-yl]-7-nitro-2,1,3-benzoxadiazole], the IC50 in the experiment with OVCAR8 cells and with UACC-257 cells was at least 20 µM each time.
On to `O=[N+]([O-])c1ccc(N2CCN(c3ccc(O)cc3)CC2)c2nonc12` [compound 146, 4-[4-(7-nitro-2,1,3-benzoxadiazol-4-yl)piperazin-1-yl]phenol], for which the IC50 in the experiment on OVCAR8 cells and in the experiment with UACC-257 cells was 1 to 20 µM throughout.
With `O=[N+]([O-])c1ccc(N2CCN(c3ncccc3C(F)(F)F)CC2)c2nonc12` [compound 148, 4-nitro-7-{4-[3-(trifluoromethyl)pyridin-2-yl]piperazin-1-yl}-2,1,3-benzoxadiazole], the IC50 with OVCAR8 cells and with UACC-257 cells was 1 to 20 µM throughout.
`CCOC(=O)c1cc(C#N)c(C)nc1N1CCN(c2ccc([N+](=O)[O-])c3nonc23)CC1` [compound 153, ethyl 5-cyano-6-methyl-2-[4-(7-nitro-2,1,3-benzoxadiazol-4-yl)piperazin-1-yl]nicotinate]: the IC50 in the experiment with OVCAR8 cells and in the experiment with UACC-257 cells was at least 20 µM each time.
For the compound `O=[N+]([O-])c1ccc(Sc2nc3ccccc3s2)c2nonc12` [compound 158, 4-(1,3-benzothiazol-2-ylthio)-7-nitro-2,1,3-benzoxadiazole], the IC50 in the experiment with OVCAR8 cells and with UACC-257 cells was 1 to 20 µM throughout.
Regarding `O=[N+]([O-])c1ccc(N2CCC(O)(c3ccc(Cl)cc3)CC2)c2nonc12` [compound 159, 4-(4-chlorophenyl)-1-(7-nitro-2,1,3-benzoxadiazol-4-yl)piperidin-4-ol], the IC50 in the experiment with OVCAR8 cells was 1 to 20 µM; in the experiment with UACC-257 cells, at least 20 µM.
Consider `CC1CC(C)CN(S(=O)(=O)c2ccc(Cl)c3nonc23)C1` (stereo not drawn) [compound 192, 4-chloro-7-[(3,5-dimethylpiperidin-1-yl)sulfonyl]-2,1,3-benzoxadiazole], for which, on ROC1/CUL1, the IC50 was at least 20 µM.
Regarding `N#CC1(c2ccccc2)CCN(S(=O)(=O)c2ccc(O)c3nonc23)CC1` [compound 199, 1-[(7-hydroxy-2,1,3-benzoxadiazol-4-yl)sulfonyl]-4-phenylpiperidine-4-carbonitrile], the IC50 at ROC1/CUL1 was at least 20 µM.
The compound `N#Cc1ccc(N2CCN(S(=O)(=O)c3c(Cl)ccc4nonc34)CC2)nc1` [compound 209, 6-{4-[(5-chloro-2,1,3-benzoxadiazol-4-yl)sulfonyl]piperazin-1-yl}nicotinonitrile] returned an IC50 at ROC1/CUL1 of at least 20 µM.
`CC(=O)N1CCN(S(=O)(=O)c2c(Sc3cccc4cccnc34)ccc3nonc23)CC1` [compound 214, 8-({4-[(4-acetylpiperazin-1-yl)sulfonyl]-2,1,3-benzoxadiazol-5-yl}thio)quinoline]: the IC50 on ROC1/CUL1 was at least 20 µM.
The same measure, in the same setting: next, `O=S(=O)(c1ccc(Sc2ccc(O)cc2)c2nonc12)N1CCC(Oc2ncccn2)CC1` [compound 226, 4-[(7-{[4-(pyrimidin-2-yloxy)piperidin-1-yl]sulfonyl}-2,1,3-benzaxadiazol-4-yl)thio]phenol]: at least 20 µM; `O=S(=O)(Nc1ccc(F)c(F)c1)c1ccc(Cl)c2nonc12` [compound 262, 7-chloro-N-(3,4-difluorophenyl)-2,1,3-benzoxadiazole-4-sulfonamide]: at least 20 µM; `O=S(=O)(Nc1cccc(F)c1)c1ccc(Cl)c2nonc12` [compound 263, 7-chloro-N-(3-fluorophenyl)-2,1,3-benzoxadiazole-4-sulfonamide]: at least 20 µM.
On to `Cc1cc(C)cc(-c2cccc3nonc23)c1` [compound 285, 4-(3,5-Dimethylphenyl)-2,1,3-benzoxadiazole], for which the IC50 at ROC1/CUL1 is at least 20 µM.
On to `O=[N+]([O-])c1ccc(N2CCN(c3ncc(C(F)(F)F)cc3Cl)CC2)c2nonc12` [compound 315, 4-{4-[3-chloro-5-(trifluoromethyl)pyrindin-2-yl]piperazin-1-yl}-7-nitro-2,1,3-benzoxadiazole], for which the half-maximal inhibitory concentration (IC50) in the experiment on OVCAR8 cells was 1 to 20 µM; with UACC-257 cells, at least 20 µM.

Source of the values: patent publication US20050282818A1, “Ubiquitin ligase inhibitors” (Rigel Pharmaceuticals, Inc., priority 2004, published 2005).
